Measurements: patent US9079880B2, “Rho kinase inhibitors” (Boehringer Ingelheim International GmbH, priority 2010, dated 2015)

Target: ROCKII (1-543) (Homo sapiens (Human), UniProt O75116)
Test: Luciferin-Luciferase Assay (PKLight ATP detection)
Assay type: biochemical
Details: 750 nM ATP, 500 nM peptide, 7.5 nM kinase
Experimental: 1. Luciferin-Luciferase Assay
The activity of ROCKII (1-543) kinase was measured utilizing Cambrex PKLight ATP Detection Reagent, a homogeneous assay technology using luciferin-luciferase to quantify residual ATP. The assay was performed in 384-well low-volume, white, non-binding surface microtiter plates (Corning). The assay buffer was 25 mM HEPES, pH 7.5, 10 mM MgCl2, 50 mM KCl, 0.2% BSA, 0.01% CHAPS, 100 μM Na3VO4 and 0.5 mM DTT. Test compounds, dissolved in neat DMSO at 500 μg/mL, were serially diluted for dose response for a final starting concentration of 3 μg/mL in 1% DMSO of assay buffer. ROCKII (1-543) (62,408Da) was diluted in assay buffer to a final concentration of 7.5 nM in a total volume of 15 μL. Positive controls were reaction mixtures containing no test compound; negative controls (blanks) were reaction mixtures containing no kinase. After 15 minutes of pre-incubation of the test compounds with the kinase, a mixture of ATP and peptide substrate ([…]) in assay buffer was added to each well for a final concentration of 750 nM ATP and 500 nM peptide, respectively. After 90 minutes of incubation of the kinase reaction at 28° C. temperature, 10 μL of PKLight ATP Detection Reagent (warmed to room temperature previously) was added to each well. The assay plate was incubated at room temperature for additional 15 minutes and then read on an Analyst in luminescence mode. Dose-response experiments for each of the test compounds were conducted in quadruplet. IC50 values of test compounds represent 50% response of the positive control from the dose-response curve.

Sequence of ROCKII (1-543) (O75116 1-543): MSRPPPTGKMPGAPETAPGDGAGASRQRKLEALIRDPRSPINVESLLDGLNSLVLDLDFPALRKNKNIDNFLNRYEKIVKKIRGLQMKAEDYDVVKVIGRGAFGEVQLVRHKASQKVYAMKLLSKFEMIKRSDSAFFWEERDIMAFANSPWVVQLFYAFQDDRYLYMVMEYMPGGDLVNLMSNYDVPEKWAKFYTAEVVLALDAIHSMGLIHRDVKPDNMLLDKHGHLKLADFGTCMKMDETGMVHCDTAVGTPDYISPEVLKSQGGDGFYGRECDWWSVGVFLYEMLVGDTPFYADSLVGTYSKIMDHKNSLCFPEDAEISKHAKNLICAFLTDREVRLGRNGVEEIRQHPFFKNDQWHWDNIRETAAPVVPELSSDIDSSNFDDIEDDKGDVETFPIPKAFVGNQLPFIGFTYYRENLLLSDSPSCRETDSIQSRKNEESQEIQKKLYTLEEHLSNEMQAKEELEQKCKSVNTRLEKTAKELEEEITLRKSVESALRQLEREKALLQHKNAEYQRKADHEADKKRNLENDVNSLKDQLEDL

Row | SMILES | IC50
1 | COc1ccc(C(=O)N[C@@H](c2cccc(C(=O)Nc3nc4c(s3)CN(C)CC4)c2)C2CC2)cc1Cl [Compound 2] | 0.0028 µM
2 | CCCC[C@@H](NC(=O)Nc1cccc(C#N)c1)c1cccc(C(=O)Nc2nc3c(s2)CN(C)CC3)c1 [Compound 4] | 0.0224 µM
3 | CN1CCc2nc(NC(=O)c3cccc(N4CCC[C@@H]4C(=O)Nc4ccc(C#N)cc4)c3)sc2C1 [Compound 5, (R)-1-[3-(5-methyl-4,5,6,7-tetrahydro-thiazolo[5,4-c]pyridin-2-ylcarbamoyl)-phenyl]-pyrrolidine-2-carboxylic acid (4-cyano-phenyl)-amide] | 0.0191 µM
4 | CCCC[C@@H](NC(=O)c1ccc(OC)c(Cl)c1)c1cccc(C(=O)Nc2nc3c(s2)CN(C)CC3)c1 [Compound 8] | 0.0381 µM
5 | CC[C@@H](NC(=O)Nc1cccc(C#N)c1)c1cccc(C(=O)Nc2nc3c(s2)CN(C)CC3)c1 [Compound 10] | 0.0057 µM
6 | CC[C@@H](NC(=O)Nc1ccc(C#N)cc1)c1cccc(C(=O)Nc2nc3c(s2)CN(C)CC3)c1 [Compound 12] | 0.0231 µM
7 | CC[C@@H](NC(=O)c1ccc(OC)c(Cl)c1)c1cccc(C(=O)Nc2nc3c(s2)CN(C)CC3)c1 [Compound 14] | 0.0038 µM
8 | CN1CCc2nc(NC(=O)c3cccc([C@H]4CNC[C@@H]4C(=O)Nc4ccc(C#N)cc4)c3)sc2C1 [Compound 15] | 0.0212 µM
9 | C[C@@H](Oc1cccc(C(=O)Nc2nc3c(s2)CN(C)CC3)c1)C(=O)Nc1ccc(C#N)cc1 [Compound 19, 3-[(R)-1-(4-cyano-phenylcarbamoyl)-ethoxy]-N-(5-methyl-4,5,6,7-tetrahydro-thiazolo[5,4-c]pyridin-2-yl)-benzamide] | 0.035 µM
10 | CN1CCc2nc(NC(=O)c3cccc(N4CCC[C@@H]4C(=O)Nc4cccc(C#N)c4)c3)sc2C1 [Compound 21] | 0.0955 µM
11 | Cc1nc(-c2ccncc2)sc1C(=O)N1CCC[C@@H]1c1cccc(C(=O)Nc2nc3c(s2)CN(C)CC3)c1 [Compound 24] | 0.0125 µM
12 | Cc1c(C(=O)N2CCC[C@@H]2c2cccc(C(=O)Nc3nc4c(s3)CN(C)CC4)c2)nnn1-c1nonc1N [Compound 30] | 0.0334 µM
13 | CN1CCc2nc(NC(=O)c3cccc([C@H]4CCCN4C(=O)Nc4ccc(C#N)cc4)c3)sc2C1 [Compound 38] | 0.0153 µM
14 | N#Cc1cccc(NC(=O)N2CCCC2c2cccc(C(=O)Nc3ccc4c(c3)CNCC4)c2)c1 (stereo not drawn) [Compound 47, 2-[3-(1,2,3,4-tetrahydro-isoquinolin-7-ylcarbamoyl)-phenyl]-pyrrolidine-1-carboxylic acid (3-cyano-phenyl)-amide trifluoroacetic acid] | 0.0178 µM
15 | N#Cc1cccc(NC(=O)N2CCC[C@@H]2c2cccc(C(=O)Nc3ccc4c(c3)CNCC4)c2)c1 [Compound 53] | 0.0115 µM
16 | CN1CCc2nc(NC(=O)c3cccc(C4CCCN4C(=O)Nc4cccc(C#N)c4)c3)sc2C1 (stereo not drawn) [Compound 55] | 0.0088 µM
17 | N#Cc1cccc(NC(=O)N2CCCC2c2cccc(C(=O)Nc3nc4c(s3)CN(Cc3ccccc3)CC4)c2)c1 (stereo not drawn) [Compound 57] | 0.0209 µM
18 | CN1CCc2ccc(NC(=O)c3cccc(C4CCCN4C(=O)Nc4cccc(C#N)c4)c3)cc2C1 (stereo not drawn) [Compound 59] | 0.0224 µM
19 | CN1CCc2nc(NC(=O)c3cccc(C4CCCN4C(=O)Nc4ccc(C#N)cc4)c3)sc2C1 (stereo not drawn) [Compound 61] | 0.0744 µM
20 | CN1CCc2nc(NC(=O)c3cccc(C4CCCN4C(=O)Nc4ccc(C(N)=O)cc4)c3)sc2C1 (stereo not drawn) [Compound 77] | 0.0054 µM

Row | SMILES | IC50
21 | C[C@@H](NC(=O)Nc1cccc(C#N)c1)c1cccc(C(=O)Nc2nc3c(s2)CN(C)CC3)c1 [Compound 81] | 0.0055 µM
22 | C[C@H](NC(=O)Nc1ccc(C#N)cc1)c1cccc(C(=O)Nc2nc3c(s2)CN(C)CC3)c1 [Compound 83] | 0.0378 µM
23 | CN1CCc2nc(NC(=O)c3cccc([C@H]4CCCN4C(=O)c4ccc5[nH]c(=O)ccc5c4)c3)sc2C1 [Compound 84] | 0.0208 µM
24 | C[C@@H](NC(=O)Nc1ccc(C#N)cc1)c1cccc(C(=O)Nc2nc3c(s2)CN(C)CC3)c1 [Compound 85] | 0.0224 µM
25 | CN1CCc2nc(NC(=O)c3cccc([C@H]4CCCN4C(=O)c4ccc(-c5cc[nH]n5)cc4)c3)sc2C1 [Compound 86] | 0.0449 µM
26 | N#Cc1cccc(NC(=O)N2CCC[C@@H]2c2cccc(C(=O)Nc3nc4c(s3)CN(Cc3ccccc3)CC4)c2)c1 [Compound 105] | 0.0125 µM
27 | CN1CCc2ccc(NC(=O)c3cccc([C@H]4CCCN4C(=O)Nc4cccc(C#N)c4)c3)cc2C1 [Compound 109] | 0.0095 µM
28 | CN1CCc2nc(NC(=O)c3cccc(C4CCCCN4C(=O)Nc4cccc(C#N)c4)c3)sc2C1 (stereo not drawn) [Compound 111] | 0.0393 µM
29 | CN1CCc2nc(NC(=O)c3cccc(C4CCCN(C(=O)Nc5cccc(C#N)c5)C4)c3)sc2C1 (stereo not drawn) [Compound 115] | 0.0775 µM
30 | CN1CCc2nc(NC(=O)c3cccc(C4CCCCN4C(=O)Nc4ccc(C#N)cc4)c3)sc2C1 (stereo not drawn) [Compound 117] | 0.0187 µM
31 | COc1ccc(C(=O)N[C@H](C)c2cccc(C(=O)Nc3ccc4c(c3)CN(C)CC4)c2)cc1OC [Compound 141] | 0.0089 µM
32 | COc1ccc(C(=O)N[C@H](C)c2cccc(C(=O)Nc3ccc4c(c3)CN(C)CC4)c2)cc1Cl [Compound 143] | 0.014 µM
33 | COc1ccc(C(=O)N[C@H](C)c2cccc(C(=O)Nc3ccc4c(c3)CN(C)CC4)c2)cc1C [Compound 145] | 0.0105 µM
34 | C[C@@H](NC(=O)Nc1cccc(C#N)c1)c1cccc(C(=O)Nc2ccc3c(c2)CN(C)CC3)c1 [Compound 147] | 0.0189 µM
35 | C[C@@H](NC(=O)Nc1ccc(C#N)cc1)c1cccc(C(=O)Nc2ccc3c(c2)CN(C)CC3)c1 [Compound 149] | 0.0575 µM
36 | CN1CCc2nc(NC(=O)c3cccc([C@H]4CCCN4C(=O)c4cn5cc(C#N)ccc5n4)c3)sc2C1 [Compound 150] | 0.0255 µM
37 | C[C@@H](NC(=O)Nc1ccc(C(N)=O)cc1)c1cccc(C(=O)Nc2ccc3c(c2)CN(C)CC3)c1 [Compound 153] | 0.0095 µM
38 | CN1CCc2nc(NC(=O)c3cccc([C@H](NC(=O)Nc4cccc(C#N)c4)C4CC4)c3)sc2C1 [Compound 155] | 0.0097 µM
39 | CN1CCc2nc(NC(=O)c3cccc([C@H](NC(=O)Nc4ccc(C#N)cc4)C4CC4)c3)sc2C1 [Compound 157] | 0.0457 µM
